The values below are quoted from earlier work in patent US20040219200A1, “Topical patch preparation containing a delayed-type hypersensitivity inducer and methods for using the same” (priority 2001, published 2004).

The conditions of this series: research conducted in the 1950s in the US.

`O=[N+]([O-])c1ccc(Cl)c([N+](=O)[O-])c1` [DNCB, 1-chloro-2,4-dinitrobenzene]: the Carcinogenicity entry is given as “not carcinogenic”.
